Test results from US7655429B2, “Immunoassays for topiramate” (Seradyn, Inc., priority 2004, dated 2010).

Tests used:
[1] = tested on: anti-topiramate antibodies prepared with immunogen (17); experiment: ELISA binding inhibition study (avidity), free topiramate versus coated antigen; parameters: species or system Rabbit
Method: ELISA plates for use in an ELISA assay are prepared in order to study the polyclonal antibody prepared as described in Example 21. As such, various topiramate antigens (16), (19), and (20) are coated on different ELISA plates before being subjected to the anti-topiramate antibody and competing free topiramate. More particularly, the topiramate antigens are diluted in coating buffer, and then added to the wells of ELISA plate. After the ELISA plate is incubated for 60 min at 37° C., the solvent in the coating buffer is decanted and a blocking buffer is added to the plate. The plate is incubated again for 60 min at 37° C., and the solvent in the blocking buffer is decanted from the plate. The ELISA plate is then stored with the blocking agent in the wells at 2-8° C. for up to 1 week. The avidity of the anti-topiramate antibodies prepared with immunogen (17) for topiramate analogs are determined by a binding inhibition study. As such, samples are prepared in 1 mL of PBS at pH 7.4 with 0.1% BSA. A composition having 30% Bmax titer or 50% Bmax titer is used to divide the obtained titer value into approximately half the titer value. Using 30% Bmax, an antibody titer of 1:10,000 is diluted to 1:5,000 during the sample preparation stage. About 50 μL of topiramate at different concentrations or calibrator values, (0, 2, 4, 8, 16, 32 μg/ml) are then applied to a plate as prepared in accordance with Example 22. About 50 μL of the diluted antibody is dispensed into the plate, and the compositions in the plate are mixed for 1 min on a horizontal plate shaker. The plate is characterized by a first row not containing topiramate or anti-topiramate antibody, wherein the first row is used as a negative control. A second row not containing topiramate is used as the positive control. The plate is incubated for 60 min, and washed three times with 250 μL of PBS at pH 7.4 with 0.05% tween. About 125 μL of a diluted second antibody conjugate such as antigens (16), (19), or (20), in PBS at pH 7.4 is added to each well of the plate. Titer is determined experimentally by the plate being incubated for 60 min at 37° C. and washed 3 times with 250 μL PBS, pH 7.4 with 0.05% tween. Subsequently, about 125 μL of ABTS substrate is added to each well of the plate and incubated for 20 min.

[2] = tested on: sheep polyclonal antibodies that bind with topiramate prepared from immunogen (18); experiment: QMS homogeneous particle-enhanced immunoturbidimetric assay; type: binding; details: Topiramate antigen (19) coated Latex, Polyclonal antibody R1
Method: An immunoturbidimetric or QMS® assay, which is a homogeneous particle-enhanced immunoturbidimetric experiment, is performed to test the polyclonal antibodies prepared as in Example 21. […] The assay procedure is initiated by diluting the specimen because the specimens with topiramate can be used to generate results that exceed the highest calibrator value. As such, the specimens may be diluted manually or by using an automated onboard dilution protocol. The assay is based on competition for topiramate-specific antibody binding sites between drug in the sample and drug coated onto a microparticle of topiramate-coated microparticle reagent is rapidly agglutinated in the presence of the anti-topiramate antibody reagent and in the absence of any competing drug of the sample. The rate of absorbance change is measured photometrically, and is directly proportional to the rate of agglutination of the particles. […] A concentration-dependent classic agglutination inhibition curve can be obtained, with maximum rate of agglutination at the lowest topiramate concentration (at zero μg/ml) and the lowest agglutination rate at the highest topiramate concentration (32 μg/ml). The QMS® topiramate assay is initiated after the being calibrated using a full calibration (6-point) procedure. The QMS® is performed as directed in operation manuals in accordance with the average skill of one in the art.

[3] = cited from earlier work
[4] = Antigen 16, Topiramate 2 μg/ml, Rabbit No. 5481
[5] = Antigen 16, Topiramate 2 μg/ml, Rabbit No. 5492
[6] = Antigen 16, Topiramate 4 μg/ml, Rabbit No. 5481
[7] = Antigen 16, Topiramate 4 μg/ml, Rabbit No. 5492
[8] = Antigen 16, Topiramate 8 μg/ml, Rabbit No. 5481
[9] = Antigen 16, Topiramate 8 μg/ml, Rabbit No. 5492
[10] = Antigen 16, Topiramate 16 μg/ml, Rabbit No. 5481
[11] = Antigen 16, Topiramate 16 μg/ml, Rabbit No. 5492
[12] = Antigen 16, Topiramate 32 μg/ml, Rabbit No. 5481
[13] = Antigen 16, Topiramate 32 μg/ml, Rabbit No. 5492
[14] = Antigen 19, Topiramate 2 μg/ml, Rabbit No. 5481
[15] = Antigen 19, Topiramate 2 μg/ml, Rabbit No. 5492
[16] = Antigen 19, Topiramate 4 μg/ml, Rabbit No. 5481
[17] = Antigen 19, Topiramate 4 μg/ml, Rabbit No. 5492
[18] = Antigen 19, Topiramate 8 μg/ml, Rabbit No. 5481
[19] = Antigen 19, Topiramate 8 μg/ml, Rabbit No. 5492
[20] = Antigen 19, Topiramate 16 μg/ml, Rabbit No. 5481
[21] = Antigen 19, Topiramate 16 μg/ml, Rabbit No. 5492
[22] = Antigen 19, Topiramate 32 μg/ml, Rabbit No. 5481
[23] = Antigen 19, Topiramate 32 μg/ml, Rabbit No. 5492
[24] = Antigen 20, Topiramate 2 μg/ml, Rabbit No. 5481
[25] = Antigen 20, Topiramate 2 μg/ml, Rabbit No. 5492
[26] = Antigen 20, Topiramate 4 μg/ml, Rabbit No. 5481
[27] = Antigen 20, Topiramate 4 μg/ml, Rabbit No. 5492
[28] = Antigen 20, Topiramate 8 μg/ml, Rabbit No. 5481
[29] = Antigen 20, Topiramate 8 μg/ml, Rabbit No. 5492
[30] = Antigen 20, Topiramate 16 μg/ml, Rabbit No. 5481
[31] = Antigen 20, Topiramate 16 μg/ml, Rabbit No. 5492
[32] = Antigen 20, Topiramate 32 μg/ml, Rabbit No. 5481
[33] = Antigen 20, Topiramate 32 μg/ml, Rabbit No. 5492
[34] = dose escalation add-on studies, morning serum

Abs [1, 4]: 0.29 | B/Bo [1, 4]: 0.38 | Abs [1, 5]: 0.25 | B/Bo [1, 5]: 0.56 | Abs [1, 6]: 0.26 | B/Bo [1, 6]: 0.34 | Abs [1, 7]: 0.20 | B/Bo [1, 7]: 0.44 | Abs [1, 8]: 0.18 | B/Bo [1, 8]: 0.24 | Abs [1, 9]: 0.15 | B/Bo [1, 9]: 0.33 | Abs [1, 10]: 0.15 | B/Bo [1, 10]: 0.20 | Abs [1, 11]: 0.13 | B/Bo [1, 11]: 0.29 | Abs [1, 12]: 0.11 | B/Bo [1, 12]: 0.14 | Abs [1, 13]: 0.01 | B/Bo [1, 13]: 0.02 | Abs [1, 14]: 0.33 | B/Bo [1, 14]: 0.40 | Abs [1, 15]: 0.31 | B/Bo [1, 15]: 0.38 | Abs [1, 16]: 0.25 | B/Bo [1, 16]: 0.30 | Abs [1, 17]: 0.23 | B/Bo [1, 17]: 0.28 | Abs [1, 18]: 0.20 | B/Bo [1, 18]: 0.24 | Abs [1, 19]: 0.19 | B/Bo [1, 19]: 0.23 | Abs [1, 20]: 0.18 | B/Bo [1, 20]: 0.22 | Abs [1, 21]: 0.17 | B/Bo [1, 21]: 0.20 | Abs [1, 22]: 0.15 | B/Bo [1, 22]: 0.18 | Abs [1, 23]: 0.15 | B/Bo [1, 23]: 0.18 | Abs [1, 24]: 0.32 | B/Bo [1, 24]: 0.53 | Abs [1, 25]: 0.45 | B/Bo [1, 25]: 0.64 | Abs [1, 26]: 0.30 | B/Bo [1, 26]: 0.50 | Abs [1, 27]: 0.41 | B/Bo [1, 27]: 0.59 | Abs [1, 28]: 0.25 | B/Bo [1, 28]: 0.42 | Abs [1, 29]: 0.38 | B/Bo [1, 29]: 0.54 | Abs [1, 30]: 0.22 | B/Bo [1, 30]: 0.37 | Abs [1, 31]: 0.38 | B/Bo [1, 31]: 0.54 | Abs [1, 32]: 0.18 | B/Bo [1, 32]: 0.30 | Abs [1, 33]: 0.28 | B/Bo [1, 33]: 0.40
Compound: CC1(C)O[C@@H]2[C@@H](CO[C@@]3(COS(N)(=O)=O)OC(C)(C)O[C@@H]23)O1 [Topiramate, 2,3:4,5-di-O-isopropylidene-beta-D-fructopyranose sulfamate]
Rate (Delta Absorbance) ([2]; Topiramate 8 μg/ml sample): 60 | Rate (Delta Absorbance) ([2]; Topiramate 16 μg/ml sample): 16 | Rate (Delta Absorbance) ([2]; Topiramate 32 μg/ml sample): 4 | serum concentration with reduction in seizure control [3, 34]: greater than 75 μmol/L | serum concentration with significant increase in side effects [3, 34]: > 60 µM | systemic topiramate concentrations ([3]; patients receiving considerably higher doses, up to 2000 mg): ≤ 80 µmol/L
